Where “and” joins values, the source holds several entries; their conditions need not be identical. Equal entries are not always repeated.
Assays:
[1] = system: dyslipidemic and cardiologic patients; assay: Anti-atherogenic effect of MNA after short-term use (2 weeks), plasma lipids in patients; format: in vivo, human; conditions: for HDL change: after 2 weeks therapy
Procedure: The anti-atherogenic effect of MNA was investigated in […] dyslipidemic and cardiologic patients. The enrollment criteria was: high level of TG (˜250 mg/dl) and/or high level of total cholesterol (TC) (≧200 mg/dl). The mean age of the patients was 57.5 (range 37-81 years). The enrolled patients were divided into two groups: dyslipidemic patients (4 patients) and dyslipidemic patients after acute coronary failure (myocardial infarction) (12 patients). The patients were treated with MNA for 2 weeks. The MNA was administered orally, three times a day, one capsule (30 mg MNA) after meal. The 16 patients have finished clinical examination.
The plasma levels of TC, TG, and HDL were measured at baseline and after 2 weeks of therapy. The level of LDL was measured in those cases where it was possible (due to high TG level).
Patient nos. 1-4 were dyslipidemic. Patient nos. 5-16 were dyslipidemic patients after acute coronary failure (myocardial infarction).

dyslipidemic patients = assay: Anti-atherogenic effect of MNA after a single administration, plasma lipids; format: in vivo, human; conditions: for HDL % / TG % / TG/HDL % / Total Cholesterol %: change vs time 0; for TG: person
Procedure: The anti-atherogenic effect of NINA after single administration was also investigated in dyslipidemic patients. The patient was treated with 100 mg MNA. The plasma levels of TC, TG, and HDL were measured at baseline and after 1 and 3 hours. The level of LDL was not measured due to high TG level. […] The increase of the HDL (24.8 vs. 29.0 mg/dl) was observed after the administration. The significant reduction of TG/HDL ratio (24.0 vs. 16.5) was observed.

[2] = system: rats fed a hypertriglyceridemic diet; assay: Rat model of hypertriglyceridemia (high-fructose diet), plasma triglyceride; format: in vivo; conditions: Wistar rats, AIN93 diet with 60% fructose 8 weeks; 100 mg/kg MNA in drinking water for the last 4 weeks; FIG. 1
Procedure: Rats fed a high-fructose diet develop hypertriglyceridemia, insulin resistance and a mild degree of hypertension abnormalities that mimic metabolic syndrome in humans (Boehm and Claudi-Boehm, Scand J Clin Lab Invest Suppl. 2005; 240:3-13). […] One group was fed a control diet (basal AIN93) for 8 weeks, the second was fed an AIN93 diet supplemented with 60% fructose for 8 weeks, and the third was fed an AIN93 diet supplemented with 60% fructose that was additionally treated with 100 mg/kg of MNA for the last 4 weeks (after hypertriglicerydemia fully develops) and was given to drinking water. At the end of experiments rats were anesthetized, and blood was withdrawn and anticoagulated. Triglyceride level in plasma was measured by standard spectophotometric technique using commercially available kits.

apoE/LDLR−/− mice = assay: Mice model of atheroprotection, quantitation of atherosclerosis; format: in vivo; conditions: female apoE/LDLR−/− mice, 100 mg/kg MNA for 2 months, vs placebo; FIG. 2
Procedure: Female apoE/LDLR^−/− mice on C57BL/6J background were used for experiments. The experiments were conducted according to the Guidelines for Animal Care and Treatment of the European Communities and were approved by the Local Animal Ethics Committee. apoE/LDLR^−/− mice were fed with standard chow. MNA was given for 2 months (100 mg/kg, 4-6 months old apoE/LDLR^−/− mice) and effects of MNA compared to placebo-treated mice. In each group of mice (control and MNA) n=5.
Development of atherosclerosis was determined by cross-section (aortic roots), en-face (whole aorta) analysis and quantified semiautomatically, as described before (Jawien et al. Eur J Clin Invest; 2006; 36:141-6). Briefly, the heart and whole aorta were washed by phosphate buffered saline, then the heart and the whole aorta were removed. The heart and ascending aorta were embedded in OCT compound and snap-frozen. Ten micrometer-thick cryosections were cut and after fixation in 4% paraformaldehyde were stained with Meyer's hematoxylin and oil red-O and lesion area was measured semiautomatically in each slide using LSM Image Browser software.

[3] = system: patients on permanent therapy with simvastatin or atorvastatin; assay: Long term MNA use in patients on permanent therapy with statins, lipoprotein levels; format: in vivo, human
Procedure: A group of 8 patients (5 females and 3 males, ages 59-85) on permanent therapy with simvastatin or atorvastatin (10-20 mg/day) were selected for the study. MNA in a daily dose of 90-180 mg was co-administrated for a period of 3 to 42 months. The liporotein levels for each patient were monitored in every 1 to 3 months. […] The changes varied from patient to patient within a limit −5% to −42%. The appropriate changes in LDL were within −12% to +17% and in HDL within −6% to +37%.

PGI2 = PGI2 release
various cell lines = assay: Cytoprotection of cell lines; format: cell-based
Chemical stability = format: physicochemical
[4] = Toxicity and tolerability
[5] = 30 mg MNA orally three times a day, after 2 weeks, individual patients
[6] = 30 mg MNA orally three times a day, after 2 weeks, individual patients nos. 1-16
[7] = change visit 2 vs visit 1, 30 mg MNA orally three times a day, 2 weeks, individual patients nos. 1-16
[8] = change visit 2 vs visit 1, 2 weeks, individual patients
[9] = mean of 16 patients, 30 mg MNA orally three times a day, after 2 weeks
[10] = mean of 16 patients, after 2 weeks
[11] = mean of 16 patients, change visit 2 vs visit 1, 2 weeks

1-methylnicotinamide chloride [MNA]
Glucose visit 2 [1, 5]: 152 mg/dl and 81 mg/dl and 89 mg/dl (2×) and 90 mg/dl and 101 mg/dl and 129 mg/dl and 96 mg/dl (2×) and 82 mg/dl and 113 mg/dl and 128 mg/dl and 97 mg/dl and 111 mg/dl | LDL visit 2 [1, 5]: 162 mg/dL and 171 mg/dL and 114 mg/dL and 82 mg/dL and 121 mg/dL and 111 mg/dL and 81 mg/dL and 149 mg/dL and 178 mg/dL and 148 mg/dL | Uric Acid visit 2 [1, 5]: 7.2 mg/dL and 4.4 mg/dL and 8.9 mg/dL and 9.6 mg/dL and 6.6 mg/dL and 5.7 mg/dL and 5.3 mg/dL and 5.31 mg/dL and 5.26 mg/dL and 5.8 mg/dL and 7.33 mg/dL | HDL visit 2 [1, 6]: 40 mg/dl and 41 mg/dl (2×) and 59 mg/dl and 31 mg/dl and 45 mg/dl (3×) and 46 mg/dl and 37 mg/dl and 36 mg/dl and 29 mg/dl and 38 mg/dl and 67 mg/dl and 72 mg/dl and 42 mg/dl | Total Cholesterol visit 2 [1, 6]: 251 mg/dL and 260 mg/dL and 208 mg/dL and 155 mg/dL and 130 mg/dL and 203 mg/dL and 194 mg/dL and 159 mg/dL and 253 mg/dL and 271 mg/dL and 229 mg/dL and 146 mg/dL and 280 mg/dL and 188 mg/dL and 243 mg/dL and 231 mg/dL | TG/HDL ratio ([1]; after 2 weeks therapy (baseline 9.60)): 5.25 | HDL change ([1]; group of dyslipidemic patients): substantial increase | HDL change ([1]; group of dyslipidemic patients after acute coronary failure (myocardial infarction)): not observed | LDL % ([1]; change visit 2 vs visit 1, 30 mg MNA orally three times a day, 2 weeks, individual patients): 18.25% and 23.91% and 107.27% and −40.58% and 0.83% and −23.97% and −35.71% and 14.62% and 78.00% and 12.98% | HDL % [1, 7]: 11.11% and 7.89% and −1.67% and −8.82% and −25.45% and −18.18% and −8.00% and −15.91% and −14.29% (2×) and 9.76% and 0.00% and −22.45% and 31.37% and 36.36% and 71.43% | Total Cholesterol % [1, 7]: 5.91% and −5.11% and 8.33% and −38.74% and −43.97% and −17.14% and −24.51% and −31.17% and −4.17% and −12.58% and 3.62% and −39.67% and −6.98% and 2.73% and −17.06% and −4.94% | Glucose % [1, 8]: −8.98% and 2.53% and 7.23% and −25.62% and 5.21% and 17.27% and −19.33% and 0.00% and 9.09% and 18.95% and 8.54% and −10.49% and −1.02% and 4.72% | Uric Acid % [1, 8]: −16.28% and 2.33% and −38.62% and 37.14% and 6.45% and 0.00% and −23.19% and 0.95% and −2.59% and −1.69% and 21.96% | TG/HDL % ([1]; change visit 2 vs visit 1, 2 weeks, individual patients nos. 1-16): −32.29% and −54.61% and −54.01% and −43.95% and −41.63% and −36.79% and −33.19% and −19.29% and −14.21% and −60.02% and −15.08% and −68.96% and −26.10% and −59.00% and −84.18% and −3.72% | TG visit 2, Mean Value [1, 9]: 216 mg/dL and 216.31 mg/dL | Total Cholesterol visit 2, Mean Value [1, 9]: 212 mg/dL and 212.56 mg/dL | HDL visit 2, Mean Value [1, 10]: 44.63 mg/dL | TG/HDL visit 2, Mean Value [1, 10]: 5.25 | HDL %, Mean Value [1, 11]: 0.85% | TG %, Mean Value [1, 11]: −47.2% and −47.18% | TG/HDL %, Mean Value [1, 11]: −45.32% | Total Cholesterol %, Mean Value [1, 11]: −14.50% | LDL visit 2, Mean Value ([1]; mean of patients with LDL measured, after 2 weeks): 131.70 mg/dL | LDL %, Mean Value ([1]; mean of patients with LDL measured, change visit 2 vs visit 1, 2 weeks): 7.86% | TG/HDL ratio (dyslipidemic patients; after the administration of 100 mg MNA (base-line 24.0)): 16.5 | HDL (dyslipidemic patients; after the administration of 100 mg MNA (base-line 24.8)): 29.0 mg/dL | TG level (dyslipidemic patients; after the administration of 100 mg MNA (base-line 596)): 479 mg/dL | HDL % (dyslipidemic patients; single 100 mg MNA, 1 h): 2.82% | TG % (dyslipidemic patients; single 100 mg MNA, 1 h): −5.03% | TG/HDL % (dyslipidemic patients; single 100 mg MNA, 1 h): −7.64% | Total Cholesterol % (dyslipidemic patients; single 100 mg MNA, 1 h): 1.08% | HDL % (dyslipidemic patients; single 100 mg MNA, 3 h): 16.94% | TG % (dyslipidemic patients; single 100 mg MNA, 3 h): -19.63% | TG/HDL % (dyslipidemic patients; single 100 mg MNA, 3 h): −31.27% | Total Cholesterol % (dyslipidemic patients; single 100 mg MNA, 3 h): 4.84% | TG (dyslipidemic patients; single 100 mg MNA, 1 h): 566 mg/dL | TG (dyslipidemic patients; single 100 mg MNA, 3 h): 479 mg/dL | HDL (dyslipidemic patients; single 100 mg MNA, 1 h): 25.5 mg/dL | TG/HDL (dyslipidemic patients; single 100 mg MNA, 1 h): 22.20 | Total Cholesterol (dyslipidemic patients; single 100 mg MNA, 1 h): 188 mg/dL | HDL (dyslipidemic patients; single 100 mg MNA, 3 h): 29.0 mg/dL | TG/HDL (dyslipidemic patients; single 100 mg MNA, 3 h): 16.52 | Total Cholesterol (dyslipidemic patients; single 100 mg MNA, 3 h): 195 mg/dL | Triglyceride level in plasma [2]: lowers triglyceride levels | Atherosclerosis progression (lesion area) (apoE/LDLR−/− mice): slows atherosclerosis progression | HDL ([3]; co-administration with statin, patients with a low starting HDL level (<40 mg/dl)): particularly remarkable increase | Triglyceride (TG) level ([3]; long term co-administration of MNA with simvastatin or atorvastatin, in general): reduction | Negative side effects ([3]; long term co-administration of MNA with statins): Neither patients nor doctors involved with this study have declared any negative side effects | PGI2 release (PGI2): releases PGI2 | Cytoprotection (various cell lines): cytoprotective | Chemical stability (Chemical stability): chemically very stable | Tolerability [4]: very well tolerated | Toxicity [4]: non-toxic

From patent US8211922B2, “1-methylnicotinamide derivatives and formulations for treatment of lipoprotein abnormalities” (Cortria Corporation, priority 2005, dated 2012)
